Measurements taken from publication PMC12662848 (Cancer Chemotherapy and Pharmacology, 2025).
Read-outs that look alike come from different tables or passages of the source.

Columns and labels:
[1] = Venetoclax plasma PK in combination with enzalutamide (LC–MS/MS, non-compartmental); assay type: in vivo, human; conditions: for half-life: read-out: D1 t½ (converted); for AUC(0-inf): read-out: D1 AUC0-inf; for Tmax: read-out: D1 Tmax
Description: A volume of 50 μL of the standard, QC, or sample plasma was pipetted into a microfuge tube and 10 μL of internal standard (IS; 500 ng/mL ^2H7-venetoclax) was added to each. Next, 200 μL of acetonitrile was added followed by vortexing for 30 s. Samples were centrifuged at 17,200 × g at room temperature for 10 min. Supernatants were transferred to autosampler vials, followed by injection of 5 μL into the LC–MS/MS system. The LC system consisted of an Exion autosampler with binary pump (Sciex, Framingham, MA, USA), Synergi Polar-RP C18 (4 µm, 2.1 × 50 mm) column kept at 30 °C. The autosampler temperature was also kept at 10 °C. Mobile phase solvent A consisted of 0.1% formic acid in water and mobile phase solvent B consisted of 0.1% formic acid in acetonitrile, mixed at 60% B. A. flow rate of 0.4 mL/min between 0–3 min and 1 mL/min from 3–5 min. Retention time of venetoclax was 1.7 min. MS detection was carried out using an ABI SCIEX (Concord, ON, Canada) 4500 tandem mass spectrometer with electrospray ionization in positive multiple reaction monitoring (MRM) mode, monitoring m/z transitions: 868.40 > 836.3 for venetoclax and 875.4 > 643.3 for venetoclax IS. QC based accuracies (N = 6, each of 3 days) were 100.9–106.2%. The intra- and inter-assay precisions were < 10.6% and < 2.4%.

CLL = conditions: cited from earlier work
[2] = Total (N = 10), venetoclax 400–800 mg with enzalutamide 160 mg/d, geometric mean (geometric SD)
[3] = Total (N = 10), venetoclax 400–800 mg with enzalutamide 160 mg/d, geometric mean (geometric SD), listed as Venetoclax
[4] = male, human, plasma, oral, 400 mg
[5] = male, human, plasma, oral, 600 mg
[6] = male, human, plasma, oral, 800 mg
[7] = venetoclax 400 mg (N = 3) with enzalutamide 160 mg/d, plasma, geometric mean (geometric SD)
[8] = venetoclax 600 mg (N = 3) with enzalutamide 160 mg/d, plasma, geometric mean (geometric SD)
[9] = venetoclax 800 mg (N = 4) with enzalutamide 160 mg/d, plasma, geometric mean (geometric SD)

SMILES: CC1(C)CCC(CN2CCN(c3ccc(C(=O)NS(=O)(=O)c4ccc(NCC5CCOCC5)c([N+](=O)[O-])c4)c(Oc4cnc5[nH]ccc5c4)c3)CC2)=C(c2ccc(Cl)cc2)C1 [venetoclax]
- D1 Cl/F [1, 2]: approximately 42 L/h
- D1 Cmax/Dose [1, 2]: 1.54 (1.54) µg/L/mg
- D1 Tmax [1, 2]: 6.0 (1.3) h
- D15 Cmin [1, 2]: 188 (2.17) µg/L
- D1 Cl/F [1, 3]: 42.1 (1.76) L/h
- D1 t½ [1, 3]: 8.9 (1.6) h
- Ratio D29/D1 (day 29 AUC0–24 over day 1 AUC0-inf) ([1]; Total, venetoclax 400–800 mg with enzalutamide 160 mg/d, geometric mean (geometric SD)): 0.77 (2.90)
- Variability of the ratio of day 29 AUC0–24 over day 1 AUC0-inf ([1]; corresponding to geometric SD 2.90): 190 %CV
- AUC(0-t) ([1]; human, plasma, oral, 800 mg, venetoclax 800 mg with enzalutamide 160 mg/d, plasma, N = 1 on D29, read-out: D29 AUC0-24): 8870 ng·h/mL
- Cmax ([1]; human, plasma, oral, 800 mg, venetoclax 800 mg with enzalutamide 160 mg/d, plasma, N = 1 on D29, read-out: D29 Cmax): 1000 ng/mL
- Increase in venetoclax apparent clearance ([1]; in combination with enzalutamide, versus previously reported values): 2–threefold
- clearance ([1]; male, human, plasma, oral): ~700 mL/min
- AUC(0-t) ([1]; male, human, plasma, oral, 400 mg, venetoclax 400 mg (N = 3) with enzalutamide 160 mg/d, plasma, geometric mean (geometric SD), read-out: D1 AUC0-last): 8020 ng·h/mL
- Cmax ([1]; male, human, plasma, oral, 400 mg, venetoclax 400 mg (N = 3) with enzalutamide 160 mg/d, plasma, geometric mean (geometric SD), read-out: D1 Cmax): 658 ng/mL
- half-life ([1]; male, human, plasma, oral, 400 mg, venetoclax 400 mg (N = 3) with enzalutamide 160 mg/d, plasma, geometric mean (geometric SD)): 11 h
- AUC(0-t) ([1]; male, human, plasma, oral, 400 mg, venetoclax 400 mg (N = 3) with enzalutamide 160 mg/d, plasma, geometric mean (geometric SD), read-out: D29 AUC0-24): 10500 ng·h/mL
- Cmax ([1]; male, human, plasma, oral, 400 mg, venetoclax 400 mg (N = 3) with enzalutamide 160 mg/d, plasma, geometric mean (geometric SD), read-out: D29 Cmax): 968 ng/mL
- AUC(0-inf) [1, 4]: 11100 ng·h/mL
- Tmax [1, 4]: 5.2 h
- AUC(0-t) ([1]; male, human, plasma, oral, 600 mg, venetoclax 600 mg (N = 3) with enzalutamide 160 mg/d, plasma, geometric mean (geometric SD), read-out: D1 AUC0-last): 12200 ng·h/mL
- Cmax ([1]; male, human, plasma, oral, 600 mg, venetoclax 600 mg (N = 3) with enzalutamide 160 mg/d, plasma, geometric mean (geometric SD), read-out: D1 Cmax): 1170 ng/mL
- half-life ([1]; male, human, plasma, oral, 600 mg, venetoclax 600 mg (N = 3) with enzalutamide 160 mg/d, plasma, geometric mean (geometric SD)): 6.6 h
- AUC(0-t) ([1]; male, human, plasma, oral, 600 mg, venetoclax 600 mg (N = 3) with enzalutamide 160 mg/d, plasma, geometric mean (geometric SD), read-out: D29 AUC0-24): 9110 ng·h/mL
- Cmax ([1]; male, human, plasma, oral, 600 mg, venetoclax 600 mg (N = 3) with enzalutamide 160 mg/d, plasma, geometric mean (geometric SD), read-out: D29 Cmax): 554 ng/mL
- AUC(0-inf) [1, 5]: 14600 ng·h/mL
- Tmax [1, 5]: 5.6 h
- AUC(0-t) ([1]; male, human, plasma, oral, 800 mg, venetoclax 800 mg (N = 4) with enzalutamide 160 mg/d, plasma, geometric mean (geometric SD), read-out: D1 AUC0-last): 8760 ng·h/mL
- Cmax ([1]; male, human, plasma, oral, 800 mg, venetoclax 800 mg (N = 4) with enzalutamide 160 mg/d, plasma, geometric mean (geometric SD), read-out: D1 Cmax): 979 ng/mL
- half-life ([1]; male, human, plasma, oral, 800 mg, venetoclax 800 mg (N = 4) with enzalutamide 160 mg/d, plasma, geometric mean (geometric SD)): 9.4 h
- AUC(0-inf) [1, 6]: 16600 ng·h/mL
- Tmax [1, 6]: 6.9 h
- Cmax ([1]; male, human, plasma, oral, Total (N = 10), venetoclax 400–800 mg with enzalutamide 160 mg/d, geometric mean (geometric SD), read-out: D1 Cmax): 917 ng/mL
- half-life ([1]; male, human, plasma, oral, Total (N = 10), venetoclax 400–800 mg with enzalutamide 160 mg/d, geometric mean (geometric SD)): ~9 h
- Cmax ([1]; male, human, plasma, oral, Total, venetoclax 400–800 mg with enzalutamide 160 mg/d, N = 3, 3, and 1 on D29, geometric mean (geometric SD), read-out: D29 Cmax): 765 ng/mL
- Ratio D29/D1 (day 29 AUC0–24 over day 1 AUC0-inf) ([1]; venetoclax 400 mg (N = 3) with enzalutamide 160 mg/d, geometric mean (geometric SD)): 0.95 (1.99)
- D1 Cl/F [1, 7]: 36.2 (1.27) L/h
- D1 Cmax/Dose [1, 7]: 1.64 (1.29) µg/L/mg
- D15 Cmin [1, 7]: 180 (1.72) µg/L
- Ratio D29/D1 (day 29 AUC0–24 over day 1 AUC0-inf) ([1]; venetoclax 600 mg (N = 3) with enzalutamide 160 mg/d, geometric mean (geometric SD)): 0.62 (5.32)
- D1 Cl/F [1, 8]: 41.2 (1.65) L/h
- D1 Cmax/Dose [1, 8]: 1.95 (1.79) µg/L/mg
- D15 Cmin [1, 8]: 214 (2.30) µg/L
- D1 Cl/F [1, 9]: 48.1 (2.31) L/h
- D1 Cmax/Dose [1, 9]: 1.22 (1.50) µg/L/mg
- D15 Cmin [1, 9]: 177 (2.89) µg/L
- Ratio D29/D1 (day 29 AUC0–24 over day 1 AUC0-inf) ([1]; venetoclax 800 mg with enzalutamide 160 mg/d, N = 1 on D29): 0.79
- Interpatient variability in Cmin ([1]; venetoclax, approximated from geometric SD (2.17–1)*100): ~117 %CV
- Intrapatient variability in Cmin ([1]; venetoclax, from day 8 through 57, across doses): 51 %CV
- Average steady-state venetoclax concentration required for a 50% tumor shrinkage (CLL): 146 µg/L
- Average steady-state venetoclax concentration that decreases lymphocyte counts by 50% from baseline (CLL): 8.63 µg/L
- Extension of PFS with a doubling of dose (CLL): 6 months
